In assay [1] the test system is DC-3F, K-562 and Lewis Lung Carcinoma cells. Kind of assay: Hypothetical sonoporation in vitro, MTT assay. It is filed as cell-based, Chinese hamster, human, murine. On the procedure: Three cell lines are used for in vitro experiments, DC-3F, a transformed Chinese hamster lung fibroblast cell line; K-562, a human leukemia cell line; and Lewis Lung Carcinoma, a murine lung carcinoma cell line. All cell lines are tested for mycoplasma. Cells are maintained in RPMI 1640 culture medium with 10% fetal calf serum, penicillin and streptomycin at 37° C. and 5% CO2. After harvesting, cells are washed and diluted in HEPES buffer containing 10 mM HEPES, 250 mM sucrose and 1 mM MgCl2 in sterile. The cell suspension with 0, 0.5, 1 and 3 mM CaCl2 is added to a sample tube which is placed in the ultrasound exposure chamber and exposed to low-frequency ultrasound at room temperature. A function generator is programmed to provide a wave of selected voltage, duty cycle, burst length, and total exposure time.
After 20 min at 37° C. and 5% CO2 cells are diluted in RPMI 1640 culture medium with 10% fetal calf serum and penicillin-streptomycin and seeded in 96-well plates at a concentration of 3.1×10^4 cells/100 μl.
Difference between cells treated with and without ultrasound in identical buffer is assessed using two-way analysis of variance CANOVA) with post least-squares-means test with Bonferroni correction for multiple comparisons.

The test system of assay [2] is MDA-MB231 (human breast cancer) tumors. Briefly: Fraction of necrosis after calcium electroporation, MDA-MB231 tumors. It is filed as in vivo, NMRI-Foxn1^nu mice. On the procedure: (§1) LPB, a murine sarcoma cell line, B16, a murine malignant melanoma cell line, MDA-MB231, human a breast cancer cell line, HT29, a human colon cancer cell line, and SW780, a human bladder cancer cell line were used for the in vivo experiment. The cells were tested by rapid MAP27 panel (Taconic, Hudson N.Y.) before use without signs of infection. 2×10^5 cells (B16), 8×10^5 cells (LPB), 2.5×10^6 cells (MDA-MB231), and 5×10^6 cells (HT29 and SW780) in 100 μl PBS were injected subcutaneously in the flank of NMRI-Foxn1^nu mice (Harlan, Indianapolis, Ind.) that were 9-11 weeks old. Mice were randomised at a tumor volume above 85 mm^3 and tumors were treated with injection of isotonic calcium-chloride solution (168 mM CaCI2) and electroporation (8 pulses of 1.0 kv/cm for 100 μs and a frequency of 1 Hz) using a 6 mm plate electrode and a square wave electroporator (CLINIPORATOR®, IGEA, Modena, Italy). Tumor volume was calculated as ab^2n/6, where a is the largest diameter and b is the largest diameter perpendicular to a. The injected volume was half of the tumor volume. […] The fraction of necrosis within the tumor was estimated from HE-sections by stereological point counting using a light microscope, evaluated by a pathologist, blinded with respect to treatment status.
(§2) The difference in fraction of necrosis at different time after treatment was assessed using student's t-test.

Assay [3] deals with HT29 (human colon cancer) tumors. Kind of assay: Fraction of necrosis after calcium electroporation, HT29 tumors. It is filed as in vivo, NMRI-Foxn1^nu mice. On the procedure: as §1, §2
Assay [4] relates to CT26 (murine colon carcinoma) tumors. Briefly: Calcium with sonoporation, CT26 tumor volume. It counts as in vivo, Balb/c mice. Here is the method:
CT26, a murine colon carcinoma cell line was used for the in vivo experiments. The cells were tested by mycoplasma detection kit (Sigma, St. Louis, Mo.) before use without signs of infection. Cells were maintained in vitro in DMEM culture medium (Sigma, St. Louis, Mo.) with 10% fetal calf serum (Sigma, St. Louis, Mo.), L-glutamine, penicillin and streptomycin at 37° C. and 5% CO2. All antibiotics were removed from culture media 24 hours before tumour inoculation. 1.0×10^6 cells/200 μl serum free DMEM were injected subcutaneously in the right flank of 6-8 week old female Balb/c mice, in condition weighing 16-22 g. Mice were randomised at an average tumor size of approximately 5.0 mm in largest diameter and tumors were treated with 1) injection of isotonic calcium-chloride solution (168 mM CaCl2) and sonoporation (3.5 W/cm^2 at 1 MHz and 100% duty cycle for 2 minutes) using a SONITRON® 2000 ultrasound apparatus (Rich-Mar, Inola, Okla.), 2) sonoporation alone (same parameters as above), 3) isotonic calcium-chloride solution injection, or 4) no treatment. Tumor volume was calculated as ab^2n/6, where a is the largest diameter and b is the largest diameter perpendicular to a. […]
The difference in tumor volume between the different treatment groups at different time after treatment was assessed using student's t-test.

Another assay deals with DC-3F cells. Briefly: Calcium electroporation with two calcium sources, MTT assay. It counts as cell-based, Chinese hamster. As to conditions: 1 mM, 8 pulses, 0-1.6 kV/cm; MTT 1 day after treatment. Here is the method: DC-3F cells were electroporated as described in example 1 with 1 mM calcium chloride (prepared by SAD, Denmark) or 1 mM calcium glubionate (Sandoz, Holzkirchen, Germany). The calcium concentration was chosen based on the experiment described in example 1 where 1 mM calcium is the lowest concentration inducing high cell death. The cells were electroporated with 8 pulses of […] at 1 Hz and increasing electric field (0-1.6 kV/cm). After 20 min at 37° C. and 5% CO2 cells were diluted in RPMI 1640 culture medium with 10% fetal calf serum and penicillin-streptomycin and seeded in 96-well plates at a concentration of 3.1×10^4 cells/100 μl.
On the technique in general: Formazan colour is commonly taken as a measure of viable cells.

In a further assay the test system is tumor on the heel joint. Briefly: Case study, calcium electroporation of canine tumor. It counts as in vivo, dog. As to conditions: 168 mM calcium chloride, 50% of tumor volume, 11 days after treatment. Here is the method:
A seven year old Danish Pointer dog with a tumor on the heel joint was treated with calcium electroporation. The tumor was injected with 168 mM calcium chloride solution in a total volume equivalent to 50% of the tumor volume calculated as ab^2n/6, where “a” is the largest diameter of the tumor and “b” is the largest diameter perpendicular to “a”. The calcium chloride solution was injected throughout the tumor to secure an even distribution of calcium in the tumor. After the calcium injection the tumor was electroporated (8 pulses of […] at 1.0 kV/cm and 1 Hz) using a needle electrode and a square wave electroporator (CLINIPORATOR®, IGEA, Modena, Italy). The tumor was photographed before and after the treatment.

The mark [5] stands for this setting: 168 mM CaCl2, half tumor volume, electroporation, first days after treatment.

Each structure is given as a SMILES string.

As for `[Ca+2].[Cl-].[Cl-]` [calcium chloride], the cell death result in assay [1] (with ultrasound, 0 to 3 mM calcium) was “dose dependent cell death”. Moreover, the “effect on cell viability” value in assay [1] (without ultrasound, high calcium concentrations) is on record as “no effect on cell viability”. Also, the “fraction of necrosis in tumors, course” value in assay [2] (setting [5]) and in assay [3] (setting [5]) was “progressive necrosis” in each case. For the same molecule, the tumor re-growth entry in assay [2] (6 days after the treatment) and in assay [3] (6 days after the treatment) was “re-growth” each time. Moreover, the treated tumors eliminated in assay [4] (168 mM CaCl2, half tumor volume, sonoporation 3.5 W/cm^2, 1 MHz, 2 minutes, 7/8) is on record as 88%. Also, in assay [4] (isotonic calcium-chloride injection alone (control)), the tumor volume result is “continues to increase”. In addition, in the assay with DC-3F cells, the “effect of calcium electroporation on cell viability, calcium chloride versus calcium glubionate” value is reported as “no difference”. Further, the necrosis of tumor result in the assay with tumor on the heel joint is reported as “clinical signs of necrosis”. The “tumor size (photos)” value in the assay with tumor on the heel joint is listed as “reduced in size”.
